Reference: publication PMC9532703, “A novel small molecule RK-019 inhibits FGFR2-amplification gastric cancer cell proliferation and induces apoptosis in vitro and in vivo” (Frontiers in Pharmacology, 2022)

Columns and labels:
Test in all cases: Kinase selectivity panel
Type in all cases: biochemical
CDK14/cyclinY(h) = molecular target: T1, CDK14/cyclinY(h) (Homo sapiens, UniProt O94921); details: read-out: Inhibition(%) @ 1 µM RK-019
T1 construct: purchased Eurofins Discovery Services (KinaseProfiler)
In short: (§1)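 Single-point selectivity screen: 1 µM compound, recombinant human enzyme, in vitro ATP-site competition binding; result expressed as inhibition ratio.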

CDK4/cyclinD3(h) = molecular target: T2, CDK4/cyclinD3(h) (Homo sapiens, UniProt P11802); details: read-out: Inhibition(%) @ 1 µM RK-019
T2 construct: purchased Eurofins Discovery Services (KinaseProfiler)
T2 sequence (P11802 whole entry): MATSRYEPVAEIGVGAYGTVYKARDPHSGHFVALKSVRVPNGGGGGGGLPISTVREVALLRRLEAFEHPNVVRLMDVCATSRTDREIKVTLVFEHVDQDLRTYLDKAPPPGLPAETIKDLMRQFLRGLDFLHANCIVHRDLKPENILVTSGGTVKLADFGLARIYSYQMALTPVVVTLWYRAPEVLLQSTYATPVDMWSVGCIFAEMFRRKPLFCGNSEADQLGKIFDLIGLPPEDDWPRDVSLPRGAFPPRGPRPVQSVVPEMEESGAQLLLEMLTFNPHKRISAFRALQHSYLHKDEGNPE
T2 sequence (P30281 whole entry partner): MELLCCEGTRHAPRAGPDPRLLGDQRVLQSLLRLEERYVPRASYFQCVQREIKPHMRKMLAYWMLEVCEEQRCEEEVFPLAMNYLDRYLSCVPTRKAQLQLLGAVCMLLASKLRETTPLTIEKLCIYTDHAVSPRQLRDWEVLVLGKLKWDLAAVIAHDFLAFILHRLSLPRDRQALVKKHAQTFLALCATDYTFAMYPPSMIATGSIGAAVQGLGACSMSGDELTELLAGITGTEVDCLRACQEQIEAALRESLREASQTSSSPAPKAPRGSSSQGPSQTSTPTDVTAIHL
In short: as §1

CDK5/p35(h) = molecular target: T3, CDK5/p35(h) (Homo sapiens, UniProt Q00535); details: read-out: Inhibition(%) @ 1 µM RK-019
T3 construct: purchased Eurofins Discovery Services (KinaseProfiler)
In short: as §1

CHK1(h) = molecular target: T4, CHK1(h) (Homo sapiens, UniProt O14757); details: read-out: Inhibition(%) @ 1 µM RK-019
T4 construct: purchased Eurofins Discovery Services (KinaseProfiler)
In short: as §1

CRIK(h) = molecular target: T5, CRIK(h) (Homo sapiens, UniProt O14578); details: read-out: Inhibition(%) @ 1 µM RK-019
T5 construct: purchased Eurofins Discovery Services (KinaseProfiler)
In short: as §1

CaMKI(h) = molecular target: T6, CaMKI(h) (Homo sapiens, UniProt Q14012); details: read-out: Inhibition(%) @ 1 µM RK-019
T6 construct: purchased Eurofins Discovery Services (KinaseProfiler)
In short: as §1

CaMKIIδ(h) = molecular target: T7, CaMKIIδ(h) (Homo sapiens, UniProt Q13557); details: read-out: Inhibition(%) @ 1 µM RK-019
T7 construct: purchased Eurofins Discovery Services (KinaseProfiler)
In short: as §1

FAK(h) = molecular target: T8, FAK(h) (Homo sapiens, UniProt Q05397); details: read-out: Inhibition(%) @ 1 µM RK-019
T8 construct: purchased Eurofins Discovery Services (KinaseProfiler)
In short: as §1

FGFR2(N549H)(h) = molecular target: T9, FGFR2(N549H)(h) (Homo sapiens, UniProt P21802, N549H); details: read-out: Inhibition(%) @ 1 µM RK-019
T9 construct: purchased Eurofins Discovery Services (KinaseProfiler)
In short: as §1

HPK1(h) = molecular target: T10, HPK1(h) (Homo sapiens, UniProt Q92918); details: read-out: Inhibition(%) @ 1 µM RK-019
T10 construct: purchased Eurofins Discovery Services (KinaseProfiler)
In short: as §1

IR(h) = molecular target: T11, IR(h) (Homo sapiens, UniProt P06213); details: read-out: Inhibition(%) @ 1 µM RK-019
T11 construct: purchased Eurofins Discovery Services (KinaseProfiler)
In short: as §1

LIMK1(h) = molecular target: T12, LIMK1(h) (Homo sapiens, UniProt P53667); details: read-out: Inhibition(%) @ 1 µM RK-019
T12 construct: purchased Eurofins Discovery Services (KinaseProfiler)
In short: as §1

LIMK2(h) = molecular target: T13, LIMK2(h) (Homo sapiens, UniProt P53671); details: read-out: Inhibition(%) @ 1 µM RK-019
T13 construct: purchased Eurofins Discovery Services (KinaseProfiler)
In short: as §1

LKB1(h) = molecular target: T14, LKB1(h) (Homo sapiens, UniProt Q15831); details: read-out: Inhibition(%) @ 1 µM RK-019
T14 construct: purchased Eurofins Discovery Services (KinaseProfiler)
In short: as §1

MARK3(h) = molecular target: T15, MARK3(h) (Homo sapiens, UniProt P27448); details: read-out: Inhibition(%) @ 1 µM RK-019
T15 construct: purchased Eurofins Discovery Services (KinaseProfiler)
In short: as §1

MEKK2(h) = molecular target: T16, MEKK2(h) (Homo sapiens, UniProt Q9Y2U5); details: read-out: Inhibition(%) @ 1 µM RK-019
T16 construct: purchased Eurofins Discovery Services (KinaseProfiler)
T16 sequence (Q9Y2U5 whole entry): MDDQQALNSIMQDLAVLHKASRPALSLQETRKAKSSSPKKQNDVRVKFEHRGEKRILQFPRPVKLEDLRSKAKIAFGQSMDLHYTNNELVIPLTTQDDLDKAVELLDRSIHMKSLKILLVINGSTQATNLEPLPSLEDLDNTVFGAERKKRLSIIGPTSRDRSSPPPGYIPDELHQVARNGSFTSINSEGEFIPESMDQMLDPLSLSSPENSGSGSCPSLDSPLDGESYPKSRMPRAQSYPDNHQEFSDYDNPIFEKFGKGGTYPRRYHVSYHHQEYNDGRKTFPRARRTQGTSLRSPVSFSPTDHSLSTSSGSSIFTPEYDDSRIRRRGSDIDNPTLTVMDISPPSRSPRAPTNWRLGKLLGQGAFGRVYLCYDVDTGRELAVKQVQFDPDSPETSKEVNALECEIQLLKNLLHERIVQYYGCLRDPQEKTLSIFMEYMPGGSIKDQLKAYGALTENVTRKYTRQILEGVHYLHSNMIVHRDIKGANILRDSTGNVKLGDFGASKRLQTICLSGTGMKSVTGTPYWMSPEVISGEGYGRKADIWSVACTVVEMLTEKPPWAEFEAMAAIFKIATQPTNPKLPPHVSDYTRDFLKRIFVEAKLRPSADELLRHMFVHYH
In short: as §1

MEKK3(h) = molecular target: T17, MEKK3(h) (Homo sapiens, UniProt Q99759); details: read-out: Inhibition(%) @ 1 µM RK-019
T17 construct: purchased Eurofins Discovery Services (KinaseProfiler)
In short: as §1

MRCKα(h) = molecular target: T18, MRCKα(h) (Homo sapiens, UniProt Q5VT25); details: read-out: Inhibition(%) @ 1 µM RK-019
T18 construct: purchased Eurofins Discovery Services (KinaseProfiler)
In short: as §1

MYO3B(h) = molecular target: T19, MYO3B(h) (Homo sapiens, UniProt Q8WXR4); details: read-out: Inhibition(%) @ 1 µM RK-019
T19 construct: purchased Eurofins Discovery Services (KinaseProfiler)
In short: as §1

MuSK(h) = molecular target: T20, MuSK(h) (Homo sapiens, UniProt O15146); details: read-out: Inhibition(%) @ 1 µM RK-019
T20 construct: purchased Eurofins Discovery Services (KinaseProfiler)
In short: as §1

NUAK2(h) = molecular target: T21, NUAK2(h) (Homo sapiens, UniProt Q9H093); details: read-out: Inhibition(%) @ 1 µM RK-019
T21 construct: purchased Eurofins Discovery Services (KinaseProfiler)
T21 sequence (Q9H093 whole entry): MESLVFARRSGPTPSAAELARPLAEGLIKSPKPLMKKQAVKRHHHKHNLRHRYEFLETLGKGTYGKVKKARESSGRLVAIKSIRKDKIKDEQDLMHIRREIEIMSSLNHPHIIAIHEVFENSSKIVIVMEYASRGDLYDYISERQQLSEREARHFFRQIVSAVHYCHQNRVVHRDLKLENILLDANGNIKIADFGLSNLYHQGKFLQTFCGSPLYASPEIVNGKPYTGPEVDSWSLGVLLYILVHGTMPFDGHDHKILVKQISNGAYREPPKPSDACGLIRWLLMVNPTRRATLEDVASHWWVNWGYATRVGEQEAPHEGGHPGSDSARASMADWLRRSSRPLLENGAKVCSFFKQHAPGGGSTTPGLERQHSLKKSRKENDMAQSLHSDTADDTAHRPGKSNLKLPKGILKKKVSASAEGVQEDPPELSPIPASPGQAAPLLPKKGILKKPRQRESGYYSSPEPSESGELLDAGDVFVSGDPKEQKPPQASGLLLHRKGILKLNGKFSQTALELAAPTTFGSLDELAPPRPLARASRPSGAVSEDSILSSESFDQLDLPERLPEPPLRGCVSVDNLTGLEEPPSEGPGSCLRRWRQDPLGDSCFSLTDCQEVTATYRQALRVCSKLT
In short: as §1

PDK1(h) = molecular target: T22, PDK1(h) (Homo sapiens, UniProt O15530); details: read-out: Inhibition(%) @ 1 µM RK-019
T22 construct: purchased Eurofins Discovery Services (KinaseProfiler)
In short: as §1

Pim-3(h) = molecular target: T23, Pim-3(h) (Homo sapiens, UniProt Q86V86); details: read-out: Inhibition(%) @ 1 µM RK-019
T23 construct: purchased Eurofins Discovery Services (KinaseProfiler)
In short: as §1

ROCK-II(h) = molecular target: T24, ROCK-II(h) (Homo sapiens, UniProt O75116); details: read-out: Inhibition(%) @ 1 µM RK-019
T24 construct: purchased Eurofins Discovery Services (KinaseProfiler)
In short: as §1

Ret(h) = molecular target: T25, Ret(h) (Homo sapiens, UniProt P07949)
T25 construct: purchased Eurofins Discovery Services (KinaseProfiler)
T25 sequence (P07949 29-1114): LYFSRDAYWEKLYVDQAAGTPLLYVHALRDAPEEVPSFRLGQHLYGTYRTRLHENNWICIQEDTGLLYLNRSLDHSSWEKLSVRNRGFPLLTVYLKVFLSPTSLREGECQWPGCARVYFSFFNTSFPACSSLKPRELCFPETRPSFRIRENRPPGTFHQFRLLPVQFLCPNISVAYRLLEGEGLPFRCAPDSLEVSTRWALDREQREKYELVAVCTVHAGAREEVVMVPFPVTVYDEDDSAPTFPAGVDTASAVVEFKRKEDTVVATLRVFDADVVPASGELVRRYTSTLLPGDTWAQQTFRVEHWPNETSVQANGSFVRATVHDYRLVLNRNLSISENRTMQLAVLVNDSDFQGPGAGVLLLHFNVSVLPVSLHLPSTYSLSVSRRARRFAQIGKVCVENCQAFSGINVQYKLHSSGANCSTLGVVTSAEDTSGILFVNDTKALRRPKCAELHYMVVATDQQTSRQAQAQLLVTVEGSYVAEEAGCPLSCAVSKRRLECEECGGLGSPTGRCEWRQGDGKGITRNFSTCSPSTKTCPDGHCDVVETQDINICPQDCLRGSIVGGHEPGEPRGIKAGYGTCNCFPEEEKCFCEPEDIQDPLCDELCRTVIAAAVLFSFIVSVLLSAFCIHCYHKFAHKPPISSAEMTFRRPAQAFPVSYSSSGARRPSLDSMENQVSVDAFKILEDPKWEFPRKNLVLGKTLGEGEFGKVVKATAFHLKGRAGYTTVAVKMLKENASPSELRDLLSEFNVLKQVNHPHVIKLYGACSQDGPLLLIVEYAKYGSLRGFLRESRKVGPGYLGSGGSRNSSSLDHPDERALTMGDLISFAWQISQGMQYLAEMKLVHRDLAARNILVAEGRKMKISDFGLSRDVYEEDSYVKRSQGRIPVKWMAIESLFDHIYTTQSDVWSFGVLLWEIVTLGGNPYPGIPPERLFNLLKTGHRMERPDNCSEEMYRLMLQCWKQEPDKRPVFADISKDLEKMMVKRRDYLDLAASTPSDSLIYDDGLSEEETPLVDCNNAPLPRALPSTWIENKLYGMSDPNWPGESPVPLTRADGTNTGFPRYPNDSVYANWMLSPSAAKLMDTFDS
In short: as §1

Rsk4(h) = molecular target: T26, Rsk4(h) (Homo sapiens, UniProt Q9UK32); details: read-out: Inhibition(%) @ 1 µM RK-019
T26 construct: purchased Eurofins Discovery Services (KinaseProfiler)
In short: as §1

SAPK3(h) = molecular target: T27, SAPK3(h) (Homo sapiens, UniProt P53778); details: read-out: Inhibition(%) @ 1 µM RK-019
T27 construct: purchased Eurofins Discovery Services (KinaseProfiler)
In short: as §1

SGK3(h) = molecular target: T28, SGK3(h) (Homo sapiens, UniProt Q96BR1); details: read-out: Inhibition(%) @ 1 µM RK-019
T28 construct: purchased Eurofins Discovery Services (KinaseProfiler)
In short: as §1

Snk(h) = molecular target: T29, Snk(h) (Homo sapiens, UniProt Q9NYY3); details: read-out: Inhibition(%) @ 1 µM RK-019
T29 construct: purchased Eurofins Discovery Services (KinaseProfiler)
In short: as §1

TAO1(h) = molecular target: T30, TAO1(h) (Homo sapiens, UniProt Q7L7X3); details: read-out: Inhibition(%) @ 1 µM RK-019
T30 construct: purchased Eurofins Discovery Services (KinaseProfiler)
In short: as §1

TAO3(h) = molecular target: T31, TAO3(h) (Homo sapiens, UniProt Q9H2K8); details: read-out: Inhibition(%) @ 1 µM RK-019
T31 construct: purchased Eurofins Discovery Services (KinaseProfiler)
In short: as §1

TBK1(h) = molecular target: T32, TBK1(h) (Homo sapiens, UniProt Q9UHD2); details: read-out: Inhibition(%) @ 1 µM RK-019
T32 construct: purchased Eurofins Discovery Services (KinaseProfiler)
In short: as §1

TrkA(h) = molecular target: T33, TrkA(h) (Homo sapiens, UniProt P04629); details: read-out: Inhibition(%) @ 1 µM RK-019
T33 construct: purchased Eurofins Discovery Services (KinaseProfiler)
T33 sequence (P04629 33-796): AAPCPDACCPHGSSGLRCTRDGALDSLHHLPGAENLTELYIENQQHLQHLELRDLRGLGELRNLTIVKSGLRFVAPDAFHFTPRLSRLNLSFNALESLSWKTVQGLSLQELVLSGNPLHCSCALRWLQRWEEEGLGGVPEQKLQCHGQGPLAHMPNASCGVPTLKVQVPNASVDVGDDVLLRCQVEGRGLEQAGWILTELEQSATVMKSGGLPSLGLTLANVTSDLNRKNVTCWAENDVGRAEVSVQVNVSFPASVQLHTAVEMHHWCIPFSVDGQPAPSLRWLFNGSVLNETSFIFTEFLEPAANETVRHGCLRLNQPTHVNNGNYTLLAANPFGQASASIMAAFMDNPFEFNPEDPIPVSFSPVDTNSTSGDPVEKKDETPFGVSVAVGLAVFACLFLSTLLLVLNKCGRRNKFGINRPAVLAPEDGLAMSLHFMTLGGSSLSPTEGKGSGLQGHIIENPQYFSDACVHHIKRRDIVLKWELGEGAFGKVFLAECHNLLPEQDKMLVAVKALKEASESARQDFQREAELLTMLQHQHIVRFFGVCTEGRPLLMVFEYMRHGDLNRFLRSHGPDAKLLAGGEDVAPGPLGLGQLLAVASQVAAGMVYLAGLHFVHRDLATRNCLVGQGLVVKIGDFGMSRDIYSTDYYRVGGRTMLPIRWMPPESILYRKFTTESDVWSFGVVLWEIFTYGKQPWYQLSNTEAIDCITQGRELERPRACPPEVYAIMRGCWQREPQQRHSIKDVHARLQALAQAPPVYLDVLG
In short: as §1

TrkC(h) = molecular target: T34, TrkC(h) (Homo sapiens, UniProt Q16288); details: read-out: Inhibition(%) @ 1 µM RK-019
T34 construct: purchased Eurofins Discovery Services (KinaseProfiler)
T34 sequence (Q16288 32-839): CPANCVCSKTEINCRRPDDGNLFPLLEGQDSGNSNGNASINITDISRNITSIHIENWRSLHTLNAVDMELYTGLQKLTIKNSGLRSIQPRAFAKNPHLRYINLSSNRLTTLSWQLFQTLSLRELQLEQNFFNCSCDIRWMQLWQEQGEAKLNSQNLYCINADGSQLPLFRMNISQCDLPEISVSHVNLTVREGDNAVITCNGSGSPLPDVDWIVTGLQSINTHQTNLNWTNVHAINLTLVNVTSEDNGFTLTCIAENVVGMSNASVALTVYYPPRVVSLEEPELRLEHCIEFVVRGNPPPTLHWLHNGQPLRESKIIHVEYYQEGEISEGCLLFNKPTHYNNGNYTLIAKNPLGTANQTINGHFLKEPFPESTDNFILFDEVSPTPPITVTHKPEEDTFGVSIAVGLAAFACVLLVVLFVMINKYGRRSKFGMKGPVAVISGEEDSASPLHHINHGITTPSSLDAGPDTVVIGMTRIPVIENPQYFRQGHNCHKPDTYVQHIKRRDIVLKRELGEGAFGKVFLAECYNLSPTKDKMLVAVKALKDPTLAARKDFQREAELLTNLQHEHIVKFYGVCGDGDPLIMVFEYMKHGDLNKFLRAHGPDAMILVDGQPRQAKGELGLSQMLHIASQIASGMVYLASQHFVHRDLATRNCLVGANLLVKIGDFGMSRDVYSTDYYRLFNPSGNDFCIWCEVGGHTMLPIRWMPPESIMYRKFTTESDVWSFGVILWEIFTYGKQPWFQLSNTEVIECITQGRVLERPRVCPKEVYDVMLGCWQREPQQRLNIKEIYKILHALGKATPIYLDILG
In short: as §1

ULK1(h) = molecular target: T35, ULK1(h) (Homo sapiens, UniProt O75385); details: read-out: Inhibition(%) @ 1 µM RK-019
T35 construct: purchased Eurofins Discovery Services (KinaseProfiler)
In short: as §1

ULK2(h) = molecular target: T36, ULK2(h) (Homo sapiens, UniProt Q8IYT8); details: read-out: Inhibition(%) @ 1 µM RK-019
T36 construct: purchased Eurofins Discovery Services (KinaseProfiler)
In short: as §1

Wee1B(h) = molecular target: T37, Wee1B(h) (Homo sapiens, UniProt P0C1S8); details: read-out: Inhibition(%) @ 1 µM RK-019
T37 construct: purchased Eurofins Discovery Services (KinaseProfiler)
In short: as §1

COc1cc(OC)cc(N(CCN[C@H](C)CO)c2ccc3ncc(-c4cnn(C)c4)c(=O)n3c2)c1 [RK-019, (R)-7-((3,5-dimethoxyphenyl) (2-((1-hydroxypropan-2-yl)amino)ethyl)amino)-3-(1-methyl-1H-pyrazol-4-yl)-4H-pyrido [1,2-a]pyrimidin-4-one]
activity at 1 µM (CDK14/cyclinY(h)): 91%
activity at 1 µM (CDK4/cyclinD3(h)): 101%
activity at 1 µM (CDK5/p35(h)): 106%
activity at 1 µM (CHK1(h)): 90%
activity at 1 µM (CRIK(h)): 117%
activity at 1 µM (CaMKI(h)): 101%
activity at 1 µM (CaMKIIδ(h)): 108%
activity at 1 µM (FAK(h)): 105%
activity at 1 µM (FGFR2(N549H)(h)): -1%
activity at 1 µM (HPK1(h)): 95%
activity at 1 µM (IR(h)): 118%
activity at 1 µM (LIMK1(h)): 103%
activity at 1 µM (LIMK2(h)): 98%
activity at 1 µM (LKB1(h)): 94%
activity at 1 µM (MARK3(h)): 80%
activity at 1 µM (MEKK2(h)): 96%
activity at 1 µM (MEKK3(h)): 103%
activity at 1 µM (MRCKα(h)): 103%
activity at 1 µM (MYO3B(h)): 106%
activity at 1 µM (MuSK(h)): 105%
activity at 1 µM (NUAK2(h)): 90%
activity at 1 µM (PDK1(h)): 110%
activity at 1 µM (Pim-3(h)): 114%
activity at 1 µM (ROCK-II(h)): 105%
inhibition at 1 µM (Ret(h); RET, 1 µM, read-out: inhibition (hit in panel)): > 90%
activity at 1 µM (Ret(h); Ret(h), read-out: Inhibition(%) @ 1 µM RK-019): 5%
activity at 1 µM (Rsk4(h)): 146%
activity at 1 µM (SAPK3(h)): 99%
activity at 1 µM (SGK3(h)): 97%
activity at 1 µM (Snk(h)): 109%
activity at 1 µM (TAO1(h)): 115%
activity at 1 µM (TAO3(h)): 100%
activity at 1 µM (TBK1(h)): 101%
activity at 1 µM (TrkA(h)): 92%
activity at 1 µM (TrkC(h)): 86%
activity at 1 µM (ULK1(h)): 105%
activity at 1 µM (ULK2(h)): 107%
activity at 1 µM (Wee1B(h)): 107%
